Data as given in patent EP4781984A1 (Beyang Therapeutics Co., Ltd., priority 2023, dated 2025).
In brackets after ≈: the same amount, converted by molar mass.

Legend:
[1] = test system: melanin; assay: Compound binding to melanin; format: in vitro ADME; conditions: cuttlefish (Sepia officinalis), melanin suspension (1 mg/mL), percentage of free drug (not bound to melanin), 2 µM compound, melanin 1 mg/mL in PBS pH 7.4, 37°C
Procedure, shortened: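 Compound at 2 µM final incubated with 1 mg/mL Sepia melanin in PBS pH 7.4, 37°C, 2 hours with shaking; blank in PBS with 0.1% BSA. Supernatant concentration by LC-MS/MS. Fb = 100 − (Ctest/Ccontrol) × 100%.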

[2] = Effect of gellan gum on formulation viscosity and viscosity change after adding simulated tear fluid (Example 10); format: physicochemical; conditions: compound 5 mg/mL, Gellan Gum 0.15% w/v; for Viscosity after Adding STF: simulated tear fluid added, volume ratio 3.6:1
Description: Example 10: Effect of Gellan Gum on Formulation Viscosity and Viscosity Change after Adding Simulated Tear Fluid
This example investigates the effect of gellan gum on formulation viscosity and simulates the scenario of eye drop instillation by adding simulated tear fluid to the formulation at a volume ratio of 3.6:1. Table 23 Effect of Gellan Gum on Formulation Viscosity
The ophthalmic drop formulation in this example was prepared using the preparation method from Example 8 (i.e., one type of Formulation II of the present invention). Except for compound , the other components in the formulation are: 30% Hydroxypropyl-β-cyclodextrin solution (containing 2% polyoxyethylene castor oil EL): 50 mM Tris(hydroxymethyl)aminomethane-Hydrochloric Acid Buffer (containing 2% Poloxamer 188, 0.3% Gellan Gum Gelrite, w/v) = 50:50 v/v, adjusted to pH using Methanesulfonic Acid and Tris(hydroxymethyl)aminomethane.

[3] = Thermodynamic solubility test; format: physicochemical; conditions: buffer solution, aqueous buffer, thermodynamic from solid; thermodynamic solubility, room temperature, 8 hours shaking; buffers pH 2.0, 6.5, 7.4 used, pH of the tabulated value not given
Procedure, shortened: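 Samples sonicated 10 min, shaken 8 h at room temperature, re-sonicated and centrifuged at 13000 rpm for 15 min. Supernatant recentrifuged and analysed by LC-MS, with concentrations quantified against a 3–5 point calibration curve.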

[4] = Ophthalmic formulations based on in situ salt formation technology: composition and state (Example 8); format: physicochemical; conditions: for State Description: pH ~7; for State Description: pH / State Description: state: Table 17: 5 mg/mL, HP-β-CD 15, Poloxamer 188 1, Gelrite 0.15, Tris-HCl (pH 6.8) 25mM
Source text: In the following ophthalmic formulation preparation examples, "solution" refers to a clear, transparent liquid without visible insoluble matter. "Near-clear solution" refers to a liquid that appears close to a solution upon visual observation but may contain a small amount of insoluble particles or have a slightly opaque color. "Suspension" refers to a liquid that is visibly turbid or opaque. "Gel" refers to a completely or partially gel-like solid.
Example 8: Ophthalmic Formulation Based on In Situ Salt Formation Technology
Therefore, by preparing ophthalmic formulation compositions based on in situ salt formation technology, the solubility of the compounds can be further improved.
According to the formulation composition shown in the table below, weigh the compound powder, add 50% of the total volume (v/v) of a 30% (w/v) aqueous solution of hydroxypropyl-β-cyclodextrin (containing surfactant), and disperse by sonication; next, add an appropriate volume of pH regulator and sonicate until clear; then, add an equal volume of buffer containing solubilizer, viscosity modifier, etc., for dilution, and immediately vortex to mix; finally, add an appropriate volume of alkali regulator to adjust the solution pH to approximately 7, to prepare an eye drop formulation.
Using the in situ salt formation method, the compound is first dispersed in a solution containing Hydroxypropyl-β-cyclodextrin, then different acids are added to adjust the pH to 3-5, allowing the compound to fully or nearly fully dissolve, followed by adding the remaining components and adjusting the pH to approximately 7. […] Based on the visual dissolution effect after acid addition, methanesulfonic acid, acetic acid, and lactic acid were preliminarily selected as pH regulators. The preliminarily selected acids were used in subsequent tests with higher compound concentrations. Table 18 Formulation Composition and State

[5] = 0.05M Fumaric Acid 10, 0.5M Tris 0.5
[6] = 1M Acetic Acid 1, 0.5M Tris 0.5
[7] = 1M Lactic Acid 1, 0.5M Tris 0.5
[8] = 1M Maleic Acid 1, 0.5M Tris 1.5
[9] = 1M Methanesulfonic Acid 1, 0.5M Tris 0.5
[10] = 1M Tartaric Acid 1, 0.5M Tris 1

Q: Which fraction unbound at 2 h, 2 µM [1] does the source give for `O=C(NC1CC1)c1cccc(F)c1Sc1ccc2c(/C=C/c3cnn(CCCN4CCCC4)c3)n[nH]c2c1` [Compound I-44, N-cyclopropyl-3-fluoro-2-({3-[(E)-2-{1-[3-(pyrrolidin-1-yl)propyl]-1H-pyrazol-4-yl}ethenyl]-1H-indazol-6-yl}sulfanyl)benzamide] here?
A: 0.01 to 0.05

Q: And the “Formulation Viscosity” value ([2]; Test temperature 25 °C)?
A: 23.27 mPa.s

Q: What about the “Viscosity after Adding STF” value ([2]; Test temperature 25 °C) of the same compound?
A: 27.26 mPa.s

Q: And the “Formulation Viscosity” value ([2]; Test temperature 37 °C)?
A: 9.53 mPa.s

Q: And the “Viscosity after Adding STF” value ([2]; Test temperature 37 °C)?
A: 24.06 mPa.s

Q: And the solubility at 8 h [3]?
A: 564 µg/mL (≈ 1060 µM)

Q: What about the “State Description” value ([4]; Table 21, Compound 10 mg/ml, 1M Methanesulfonic Acid 1%, Polyoxyethylene castor oil EL 1%, no 0.5M Tris) of the same compound?
A: near-clear solution

Q: And the “State Description” value ([4]; Table 21, Compound 20 mg/ml, 1M Methanesulfonic Acid 4%, Polyoxyethylene castor oil EL 1%, 0.5M Tris 1%)?
A: near-clear solution

Q: Which fraction unbound at 2 h, 2 µM [1] does the source give for `CCNC(=O)c1cc(F)ccc1Sc1ccc2c(/C=C/c3ccc(CN4CCCC4)cn3)n[nH]c2c1` [Compound I-97, N-ethyl-5-fluoro-2-({3-[(E)-2-{5-[(pyrrolidin-1-yl)methyl]pyridin-2-yl}ethenyl]-1H-indazol-6-yl}sulfanyl)benzamide] here?
A: 0.01 to 0.05

Q: What about the “Formulation Viscosity” value ([2]; Test temperature 25 °C) of the same compound?
A: 19.01 mPa.s

Q: And the “Viscosity after Adding STF” value ([2]; Test temperature 25 °C)?
A: 24.19 mPa.s

Q: And the “Formulation Viscosity” value ([2]; Test temperature 37 °C)?
A: 7.97 mPa.s

Q: What about the “Viscosity after Adding STF” value ([2]; Test temperature 37 °C) of the same compound?
A: 21.95 mPa.s

Q: And the solubility at 8 h [3]?
A: 319 µg/mL (≈ 635 µM)

Q: And the “State Description” value ([4]; Compound 10 mg/ml, 1M Acetic Acid 2%, no Polyoxyethylene castor oil EL, 0.5M Tris 1%)?
A: pH ~7, near-clear solution, with opalescence

Q: And the “State Description” value ([4]; Compound 10 mg/ml, 1M Lactic Acid 2%, no Polyoxyethylene castor oil EL, 0.5M Tris 1%)?
A: pH ~7, near-clear solution, with opalescence

Q: What about the “State Description” value ([4]; Compound 10mg/ml, 1M Methanesulfonic Acid 2%, no Polyoxyethylene castor oil EL, 0.5M Tris 1%) of the same compound?
A: pH ~7, near-clear solution, with opalescence

Q: What about the “State Description” value ([4]; Compound 15 mg/ml, 1M Methanesulfonic Acid 3%, no Polyoxyethylene castor oil EL, 0.5M Tris 1%) of the same compound?
A: pH ~7, near-clear solution, with opalescence

Q: What about the “State Description” value ([4]; Compound 20 mg/ml, 1M Methanesulfonic Acid 4%, Polyoxyethylene castor oil EL 1%, 0.5M Tris 1%) of the same compound?
A: solution

Q: What about the “State Description” value ([4]; Compound 20 mg/ml, 1M Methanesulfonic Acid 4%, no Polyoxyethylene castor oil EL, 0.5M Tris 0.5%) of the same compound?
A: pH ~7, near-clear solution, with opalescence

Q: What about the “State Description: pH” value [4, 5] of the same compound?
A: ~7

Q: And the “State Description: state” value [4, 5]?
A: suspension

Q: What about the “State Description: pH” value [4, 6] of the same compound?
A: ~7

Q: And the “State Description: state” value [4, 6]?
A: near-clear solution

Q: What about the “State Description: pH” value [4, 7] of the same compound?
A: ~7

Q: What about the “State Description: state” value [4, 7] of the same compound?
A: near-clear solution

Q: And the “State Description: pH” value [4, 8]?
A: ~7

Q: And the “State Description: state” value [4, 8]?
A: near-clear solution

Q: What about the “State Description: pH” value [4, 9] of the same compound?
A: ~7

Q: And the “State Description: state” value [4, 9]?
A: near-clear solution

Q: What about the “State Description: pH” value [4, 10] of the same compound?
A: ~7

Q: What about the “State Description: state” value [4, 10] of the same compound?
A: near-clear solution
